SMILES strings stand for the structures. Like-named read-outs stand apart in the source and are kept apart here.

In series [1] the test system is MIA PaCa-2 tumor mouse xenograft. In words: Antitumor efficacy study in MIA PaCa-2 mouse xenograft. To be noted: single agent MRTX849, 10 mg/kg qd, 25 days.
Series [2] concerns pERK in MIA PaCa-2 tumors. The series is described as follows: Tumor pharmacodynamic (pERK) study in MIA PaCa-2 mouse xenograft.
For series [3], the system named is phosphorylated ERK1/2 (pERK) in MKN1 cells. In words: cells. The conditions noted are these: Homo sapiens. The format is cell-based.
In series [4] the target is T1, human EGFR (Homo sapiens, UniProt P00533).
T1 construct: purchased Reaction Biology
T1 sequence (P00533 25-1210): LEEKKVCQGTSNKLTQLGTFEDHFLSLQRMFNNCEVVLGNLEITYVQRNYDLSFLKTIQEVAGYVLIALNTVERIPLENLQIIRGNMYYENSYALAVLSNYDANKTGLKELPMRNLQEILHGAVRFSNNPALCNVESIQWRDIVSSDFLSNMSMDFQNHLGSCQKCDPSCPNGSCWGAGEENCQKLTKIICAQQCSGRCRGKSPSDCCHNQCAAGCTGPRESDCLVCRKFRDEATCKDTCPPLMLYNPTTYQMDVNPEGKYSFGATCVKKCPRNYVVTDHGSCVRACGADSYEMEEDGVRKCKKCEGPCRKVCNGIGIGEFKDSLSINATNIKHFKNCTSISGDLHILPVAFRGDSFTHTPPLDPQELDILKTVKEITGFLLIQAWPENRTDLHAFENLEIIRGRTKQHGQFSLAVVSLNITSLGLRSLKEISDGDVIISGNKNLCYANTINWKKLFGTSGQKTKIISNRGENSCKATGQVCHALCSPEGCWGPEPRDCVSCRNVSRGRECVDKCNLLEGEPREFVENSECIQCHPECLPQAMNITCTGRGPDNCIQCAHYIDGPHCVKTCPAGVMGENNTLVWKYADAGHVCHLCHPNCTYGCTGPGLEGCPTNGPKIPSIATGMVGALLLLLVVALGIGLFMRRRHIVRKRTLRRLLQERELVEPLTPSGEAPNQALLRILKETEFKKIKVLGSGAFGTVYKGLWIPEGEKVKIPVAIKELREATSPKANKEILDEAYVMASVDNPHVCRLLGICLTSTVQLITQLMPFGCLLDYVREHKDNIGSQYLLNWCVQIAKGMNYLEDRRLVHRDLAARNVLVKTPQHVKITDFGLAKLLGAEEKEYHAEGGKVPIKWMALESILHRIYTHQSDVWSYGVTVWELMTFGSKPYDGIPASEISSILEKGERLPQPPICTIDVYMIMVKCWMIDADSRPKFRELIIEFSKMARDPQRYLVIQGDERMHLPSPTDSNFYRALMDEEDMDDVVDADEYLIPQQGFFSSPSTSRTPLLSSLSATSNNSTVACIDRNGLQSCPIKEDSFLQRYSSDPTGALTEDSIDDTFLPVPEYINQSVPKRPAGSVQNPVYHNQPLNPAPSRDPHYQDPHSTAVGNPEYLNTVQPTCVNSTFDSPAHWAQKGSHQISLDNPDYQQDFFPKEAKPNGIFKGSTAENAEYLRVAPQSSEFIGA
The series is classed as biochemical.

The nature of series [5]: Human liver microsome intrinsic clearance. The format is in vitro ADME. The conditions noted are these: human liver microsomes.
The nature of series [6]: in vivo. The conditions noted are these: CD-1, mouse, pH 5; for clearance: iv, 3 mg/kg; for AUC(0-t) / bioavailability: po, 100 mg/kg.
The mark [7] stands for this setting: MKN-1, In-Cell Western Assay measuring pERK, read-out: MKN1 Cell IC50.
[8] abbreviates: MKN-1, read-out: MKN1 Cell IC50.
Where [9] appears, read: PO CD-1 mice, 100 mg/kg, 0.5% MC (4000 cps)/0.2% Tween80 in water.

As to `C=C(F)C(=O)N1CCN(c2nc(OC[C@@H]3CCCN3C)nc3c2CCN(c2cccc4cccc(Cl)c24)C3)C[C@@H]1CC#N` [MRTX849, adagrasib, reference compound], the “tumor growth inhibition (TGI)” value in series [1] is recorded as 94%. Further, the “tumor pERK modulation, single agent” value in series [2] (MRTX849 at 10 mg/kg qd PO, 21 days) is listed as “No modulation”. For the same compound, the “plasma concentration of MRTX849” value in series [2] (MRTX849 dosed in combination with MRTX0902) is listed as “remained unchanged”.
Take `COc1cc2cnnc(N[C@H](C)c3cccc4ccccc34)c2cc1OC` [Compound 7]: the IC50 in series [3] (setting [7]) and in series [4] (10 μM ATP) was > 10000 nM throughout.
With `Cc1ncccc1[C@@H](C)Nc1nnc(C)c2cnc(N3CCOCC3)cc12` [Compound 28], the CLint scaled in series [5] came to 21 mL/min/kg.
Regarding `Cc1c(C#N)cccc1[C@@H](C)Nc1nnc(C)c2cc(C#N)c(N3CCOCC3)cc12` [Compound 37], the IC50 in series [3] (setting [7]) turned out to be 490 nM.
As for `COc1cc2cnnc(N[C@H](C)c3ccccc3C)c2cc1OC` [Compound 9], the IC50 in series [3] (setting [7]) and in series [4] (10 μM ATP) was > 10000 nM throughout.
With `Cc1c([C@@H](C)Nc2nnc(C)c3cnc(N4CCOCC4)cc23)cccc1S(C)(=O)=O` [Compound 33], in series [5], the CLint scaled was found to be 7.9 mL/min/kg.
Regarding `Cc1c([C@@H](C)Nc2n[nH]c(=O)c3ccc(N4CCNCC4)cc23)cccc1C(F)(F)F` [Compound 21], the 50% inhibitory concentration (IC50) in series [3] (setting [8]) stood at 114 nM.
Turning to `COc1cc2cnnc(N[C@H](C)c3cccc(C(F)(F)F)c3)c2cc1OC` [Compound 8], the IC50 was 958 nM in series [3] (setting [8]) and > 10000 nM in series [4] (10 μM ATP).
For the compound `Cc1c([C@@H](C)Nc2nnc(C)c3cnc(N4CCOCC4)cc23)cccc1C(F)(F)F` [Compound 24], the IC50 in series [3] (setting [7]) was 26 nM. In series [5], this compound came in with a CLint scaled of 114 mL/min/kg. Besides, under setting [9], the “mPK PO Dosing %F” value is given as ~100% and the “mPK PO Dosing AUC0-last” value was 130318 ng·h/mL. The compound also showed a clearance in series [6] of 17 mL/min/kg. For the same compound, the “tumor pERK modulation, single agent” value in series [2] (24 at 100 mg/kg bid PO, 21 days, 3 h after last dose) is on record as “No modulation”. The “reduction in tumor pERK, combination” value in series [2] (24 at 100 mg/kg bid in combination with MRTX849 10 mg/kg qd, PO, 21 days, 3 h after last dose) is given as 69%.
On to `Cc1c([C@@H](C)Nc2nnc(C)c3cnc(N4CCNCC4)cc23)cccc1C(F)(F)F` [Compound 23], for which the CLint scaled in series [5] was 27 mL/min/kg. This compound also returned an Eh (mouse, IV 3 mg/kg) of 0.58. In series [6], the clearance is 52 mL/min/kg, the AUC(0-t) was determined as 9970 ng·h/mL and the bioavailability is 44%.
As to `Cc1c(Br)cccc1[C@@H](C)Nc1nnc(C)c2cnc(N3CCOCC3)cc12` [Compound 31], the IC50 in series [3] (setting [8]) came to 114 nM. This compound also had a CLint scaled in series [5] of 396 mL/min/kg.
Compound `Cc1nnc(N[C@H](C)c2cccc(C(F)(F)F)c2F)c2cc(N3CCOCC3)ncc12` [Compound 25] displayed a CLint scaled in series [5] of 214 mL/min/kg.
Same read-out and setting: under `Cc1nnc(N[C@H](C)c2cccc(C#N)c2)c2cc(N3CCOCC3)ncc12` [Compound 34] stands 505 mL/min/kg.
As to `Cc1c([C@@H](C)Nc2nnc(C)c3ccc(C4CCNCC4)cc23)cccc1C(F)(F)F` [Compound 16], the IC50 in series [3] (setting [8]) was found to be 183 nM.
For `Cc1nnc(N[C@H](C)c2cc(N)cc(C(F)(F)F)n2)c2cc(N3CCOCC3)ncc12` [Compound 27], the CLint scaled in series [5] is 18 mL/min/kg.
For the compound `Cc1c([C@@H](C)Nc2nn(C)c(=O)c3ccc(N4CCNCC4)cc23)cccc1C(F)(F)F` [Compound 22], the IC50 in series [3] (setting [8]) was 881 nM.
As to `Cc1nnc(N[C@H](C)c2cn(C)nc2C(F)(F)F)c2cc(N3CCOCC3)ncc12` [Compound 30], in series [3] (setting [8]), the IC50 is 1150 nM. In series [5], this compound displayed a CLint scaled of 37 mL/min/kg.
In the case of `Cc1nn(C)cc1[C@@H](C)Nc1nnc(C)c2cnc(N3CCOCC3)cc12` [Compound 29], the IC50 in series [3] (setting [8]) came to 3280 nM. In series [5], this compound gave a CLint scaled of 15 mL/min/kg.
With `COc1cc2cnnc(N[C@H](C)c3cccc(C(F)(F)F)c3C)c2cc1OC` [Compound 10], in series [4] (10 μM ATP), the IC50 was > 10000 nM.
As to `Cc1c([C@@H](C)Nc2nnc(C(F)(F)F)c3ccc(N4CCNCC4)cc23)cccc1C(F)(F)F` [Compound 18], the IC50 in series [3] (setting [7]) is > 10000 nM.
As for `COc1nnc(N[C@H](C)c2cccc(C(F)(F)F)c2C)c2cc(N3CCNCC3)ccc12` [Compound 19], in series [3] (setting [7]), the IC50 was > 10000 nM.
Still for that read-out and setting: under `Cc1c(C#N)cccc1[C@@H](C)Nc1nnc(C)c2cc(F)c(N3CCOCC3)cc12` [Compound 35] stands 120 nM.
In series [6], `Cc1c([C@@H](C)Nc2nnc(C)c3ccc(N4CCNCC4)cc23)cccc1C(F)(F)F` [Compound 15] displayed a clearance of 85 mL/min/kg, an AUC(0-t) of 1300 ng·h/mL and a bioavailability of 11%.
In the case of `Cc1c(C#N)cccc1[C@@H](C)Nc1nnc(C)c2cc(Cl)c(N3CCOCC3)cc12` [Compound 36], the IC50 in series [3] (setting [8]) turned out to be 286 nM.
On to `Cc1nnc(N[C@H](C)c2cccc(C(F)(F)F)n2)c2cc(N3CCOCC3)ncc12` [Compound 26], for which the 50% inhibitory concentration (IC50) in series [3] (setting [8]) came to 185 nM. For the same compound, the CLint scaled in series [5] came to 206 mL/min/kg.
As for `COc1cc2cnnc(N[C@H](C)c3ccccc3)c2cc1OC` [Compound 6], the IC50 in series [3] (setting [7]) and in series [4] (10 μM ATP) was > 10000 nM in each case.
Turning to `CNCc1ccccc1-c1csc([C@@H](C)Nc2nncc3cc(OC)c(OC)cc23)c1` [Compound 11], in series [4], the IC50 is > 10000 nM.

For the origin of these results see paper PMC9340770 (Journal of Medicinal Chemistry, 2022).
